From patent US20190247333A1, “METHOD OF REDUCTION IN […] […]” (ZOGENIX INTERNATIONAL LIMITED, priority 2017, published 2019)

Legend:
[1] = system: patients with Dravet syndrome; test: Open-label extension (OLE) study (Study 1503); type: in vivo, human; details: for median decrease in MCSF over the entire observation period compared to baseline: OLE interim analysis
Protocol: Table 7 presents additional analysis of seizure free intervals in the two placebo-controlled studies prior to the OLE. Inclusion criteria in both studies were for patients aged ≥2 years. Subgroup analysis was performed on patients between ≥2 to <6 years and on patients ≥6 years.
Patients (2-18 years old) entered a long-term, OLE study (Study 1503) after completing either Study 1 or Study 1504: Study 1 (14 wk; FFA: 0, 0.2, or 0.8 mg/kg/d; max, 30 mg/d in stiripentol [STP]-free AED regimens) or Study 1504 (15 wk; FFA: 0.5 mg/kg/d; max, 20 mg/d in AED+STP regimens). In 1503, all patients received 0.2 mg/kg/d FFA for 1 month; dosing was titrated to therapeutic effect thereafter.
A total of 42 of 158 (26.6%) patients who enrolled in the OLE were <6 years old at time of entry into the OLE study. The median baseline monthly convulsive seizure frequency (MCSF) prior to double-blind treatment was 10.7 seizures/month (range, 4.0 to 147.3). At the time of the OLE interim analysis, the median decrease in MCSF over the entire observation period compared to baseline was −76% (P<0.001) compared with −64% in the overall study population during the same time period.

[2] = system: patients with Dravet syndrome; test: Study 1: Phase 3 randomized, double-blind, placebo-controlled study of ZX008 as adjunctive therapy (ZX008-1501/1502); type: in vivo, human; details: for mean (SD) number of non-convulsive seizures (all types) per 28 days: Baseline; for reduction from Baseline in non-convulsive seizure frequency: T+M Period; for mean (SD) non-convulsive seizure frequency per 28 days: end of T+M Period
Protocol: The first 119 subjects to be randomized in both identical studies combined were analyzed and reported as Study 1 (FIG. 1), covered by a Statistical Analysis Plan (SAP).
Primary and key secondary endpoints in the Study 1 SAP were pre-determined. All patients were treated twice per day over a period of 14 weeks using an oral syringe to administer the formulation. The treatment period included a two-week titration period and a 12-week maintenance period.
The initial results of Study 1 are outlined below. The randomized, double blind, placebo controlled, Phase 3 study enrolled 119 patients across sites in the United States, Canada, Europe and Australia. The median age of patients was 8 years, the mean age of patients was 9 years (range, 2-18 years) (FIG. 2).
Patients were titrated to their target dose over two weeks, and then remained at that fixed dose for 12 weeks. The mean baseline convulsive seizure frequency across the study groups was approximately 40 seizures per month. 110 (92%) patients completed the study (85% 0.8 mg/kg/day; 100% 0.2 mg/kg/day; 93% placebo).
The proportion of patients who achieved ≥75% seizure reductions, a secondary (non-key) efficacy measure, is also presented.
The mean number of convulsive seizure free days, defined as a day for which diary data are available and no convulsive seizures have been reported, was determined for each treatment group during the Baseline and T+M Periods. Using a parametric analysis, comparisons for the ZX008 groups to placebo were estimated from an ANCOVA model with treatment group (3 levels) and age group (<6 years, ≥6 years) as factors, log baseline number of convulsive seizure free days as a covariate and log convulsive seizure free days (Titration+Maintenance, or Maintenance Period) as response. The mean (SD) number of convulsive seizure free days per 28 days during the Baseline Period was 12.6 (7.68), 15.7 (6.80), and 14.6 (7.59) for the placebo, 0.2 and 0.8 mg/kg/day groups, respectively. […] The mean (SD) number of convulsive seizure free days for the 0.2 mg/kg/day group was 17.9 (8.04) days, which was numerically greater than placebo, but was not statistically significant (p=0.514). Similar results were obtained with a nonparametric analysis where the difference between the 0.8 mg/kg/day and placebo groups was statistically significant (p<0.001) while the difference between the 0.2 mg/kg/day and placebo groups was not (p=0.102).

[3] = system: patients with Dravet syndrome; details: cited from earlier work
[4] = long-term fenfluramine treatment

CCNC(C)Cc1cccc(C(F)(F)F)c1 (racemic) [fenfluramine, 3-trifluoromethyl-N-ethylamphetamine]
reduction in MCSF ([1]; Dravet patients 6 years of age or less): sustained, clinically meaningful reduction in MCSF
median decrease in MCSF over the entire observation period compared to baseline ([1]; overall study population): −64%
median decrease in MCSF over the entire observation period compared to baseline ([1]; patients <6 years old at entry): −76%
most frequently reported AE's ([1]; OLE, patients <6 years old): pyrexia, nasopharyngitis, upper respiratory tract infections, and diarrhea
mean (SD) number of non-convulsive seizures (all types) per 28 days ([2]; 0.2 mg/kg/day group): 193.6 (478.45) per 28 days
reduction from Baseline in non-convulsive seizure frequency ([2]; 0.2 mg/kg/day): 9.7%
mean (SD) non-convulsive seizure frequency per 28 days ([2]; 0.2 mg/kg/day): 93.7 (219.69) per 28 days
mean (SD) number of non-convulsive seizures (all types) per 28 days ([2]; 0.8 mg/kg/day group): 335.2 (758.58) per 28 days
reduction from Baseline in non-convulsive seizure frequency ([2]; 0.8 mg/kg/day): 59.1%
mean (SD) non-convulsive seizure frequency per 28 days ([2]; 0.8 mg/kg/day): 127.9 (297.39) per 28 days
Seizure-free Patients ([3]; fenfluramine and valproate, average 0.34 mg/kg/day for between 1 and 22 years): 66.6%
heart valve defects by echocardiography [3, 4]: No clinically relevant defects were identified
reduction in seizures [3, 4]: 75%
incidence of all types of seizures ([3]; not only photosensitive or self-induced seizures): effectively reduced the incidence of all types of seizures
